Laboratory results: PubChem BioAssay (NCI)
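Compound exposure: 48 hours, 5 concentrations, 96-well plates. At the TGI there is no net growth.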

Legend:
Test in all cases: NCI anticancer screen, dose series, 48 h
[1] = test system: HT29 colon
[2] = test system: SK-MEL-2 melanoma
[3] = test system: MALME-3M melanoma
[4] = test system: SNB-75 CNS
[5] = test system: CCRF-CEM leukemia
[6] = test system: NCI-H522 lung
[7] = test system: RPMI-8226 leukemia
[8] = test system: K-562 leukemia
[9] = test system: UO-31 renal
[10] = test system: NCI-H460 lung

Row | Structure (SMILES) | TGI [1] [µM] | TGI [2] [µM] | TGI [3] [µM] | TGI [4] [µM] | TGI [5] [µM] | TGI [6] [µM] | TGI [7] [µM] | TGI [8] [µM] | TGI [9] [µM] | TGI [10] [µM]
1 | O=c1/c(=C\c2ccccc2)sc2n1C(c1ccccc1)C1(O)CCCCC1N=2 (configuration not stated) | > 100 | > 100 | > 100 | > 100 | > 100 | > 100 | > 100 | > 100 | > 100 | > 100
2 | C=CCOc1ccccc1N=N/C(C#N)=N\Nc1ccccc1OCC=C | > 100 | > 100 | > 100 | > 100 | > 100 | > 100 | > 100 | > 100 | > 100 | > 100
3 | O=C1C(F)=CC(COC(c2ccccc2)(c2ccccc2)c2ccccc2)OC1n1cc(F)c(=O)[nH]c1=O (configuration not stated) | 1.59 | 7.49 | 31.4 | 10.9 | > 32 | 3.1 | 1.31 | > 100 | 5.61 | 7.68
4 | FC(F)(F)c1ccccc1N1CCN(c2nc(-c3cccs3)nc3ccc(Br)cc23)CC1 | > 100 | 74.1 | 55.9 | > 100 | 39.8 | > 100 | 34.5 | > 100 | > 100 | > 100
5 | Cc1c2c(cc3c1[nH]c1ccccc13)C=NCC2 | 31.7 | 21.1 | 11.7 | 39.5 | 30.5 | 41.8 | 51.6 | 20.8 | 59.9 | 27.7
6 | NC(=O)c1nnc2cc(F)ccc2c1N | > 100 | > 100 | > 100 | > 100 | > 100 | > 100 | > 100 | > 100 | > 100 | > 100
7 | CCCCCC(=O)c1ccc2[nH]c3c(C)cc([N+](=O)[O-])c(C)c3c2c1 | > 100 | > 100 | > 100 | > 100 | > 100 | > 100 | > 100 | 92.5 | > 100 | > 100
8 | C/C(=N/NC(=S)Nc1ccccc1Cl)c1cccc(/C(C)=N\NC(=S)Nc2ccccc2Cl)n1 | > 100 | > 100 | > 100 | > 100 | > 100 | > 100 | > 100 | > 100 | > 100 | > 100
9 | COc1cc(OC)c2c(O)c3c(cc2c1)CC(C)(C)CC3=O | > 100 | > 100 | > 100 | > 100 | > 100 | > 100 | > 100 | > 100 | > 100 | > 100
10 | O=C1C(NCCc2ccc(O)c(O)c2)=CC(=O)c2ncccc21 | > 93.3 | 21.5 | 18.4 | 29.4 | 60.4 | 7.31 | > 70 | 20.2 | 24.4 | 29.4
11 | Clc1ccc(Cc2nc3ccc(CCN4CCN(c5ccccc5)CC4)cc3[nH]2)cc1 | 22.5 | 30.6 | 32.9 | 38.3 | > 100 | 28.4 | 54.5 | 30.6 | 20.3 | 27.8
12 | COc1ccc2[nH]c(Cl)c(/C=C3/C(=O)Nc4cc(C)c(OC)cc43)c2c1 | 15 | 7.8 | 18.2 | 23.4 | 19.1 | 9.62 | > 100 | > 100 | 28.5 | 12.9
13 | C=C1C[C@@H](O)C[C@@]2(C)C[C@@H]3OC(=O)C(=C)[C@@H]3C[C@H]12 | 10.8 | 39.3 | 13.4 | > 35.5 | > 36.1 | 21.6 | 34.5 | > 100 | 31.2 | > 58.6
14 | CC(=O)N1CCc2c([nH]c3ccc(Br)cc23)C1c1ccccc1 (configuration not stated) | > 10 | > 10 | > 10 | > 10 | > 10 | > 10 | > 10 | > 10 | > 10 | > 10
15 | CCOC(=O)N1CCN(c2ccc3c(C)cc(C)nc3n2)CC1 | > 100 | > 100 | > 100 | > 100 | > 100 | > 100 | > 100 | > 100 | > 100 | > 100
16 | Clc1cc2c(c(CSC3=NCN(CC4CC4)CN3)c1)OCOC2 | 63.1 | 35.4 | 34.2 | 39.6 | 27.2 | 30.1 | 38.2 | > 100 | 37.1 | 39.6
17 | CN(C)c1ccc(/C=C2\N=C(NN)NC2=O)cc1 | 98.9 | > 100 | > 100 | > 100 | > 100 | > 100 | > 100 | > 100 | > 100 | > 100
18 | COc1ccc(O[C@H](COCc2ccccc2)C[C@@H]2COC(C)(C)O2)cc1 | > 100 | > 100 | > 100 | > 100 | > 100 | > 100 | > 100 | > 100 | > 100 | > 100

Row | Structure (SMILES) | TGI [1] [µM] | TGI [2] [µM] | TGI [3] [µM] | TGI [4] [µM] | TGI [5] [µM] | TGI [6] [µM] | TGI [7] [µM] | TGI [8] [µM] | TGI [9] [µM] | TGI [10] [µM]
19 | Cc1ccc(OCC2OC(n3cnc4nc(Cl)nc(Cl)c43)CC2Oc2ccc(C)cc2)cc1 (configuration not stated) | 20.4 | 18.1 | 33.9 | 28.5 | > 23.1 | 4.31 | 9.35 | 4.83 | 22 | 20.2
20 | ClC(Cl)(Cl)C1=N[C@H]2[C@H](Br)[C@@H]3O[C@@H](c4ccccc4)[C@H](c4ccccc4)O[C@@H]3[C@H]2O1 | 58.1 | 31.3 | 36.2 | 44 | 47.2 | 26.7 | 41 | 54 | 38.5 | 30
21 | COC(=O)C(CCc1ccccc1I)C1=CCC2(CC1)OCCO2 (configuration not stated) | > 100 | > 100 | > 100 | > 100 | 33.7 | 68.8 | > 100 | > 100 | 76.2 | > 100
22 | CNc1ccc(-c2nc3cc(C)ccc3o2)cc1 | > 100 | > 100 | > 100 | 33.7 | > 100 | > 100 | > 100 | > 100 | > 100 | > 100
23 | O=C1Sc2ccc(Br)cc2C(=O)Sc2ccccc21 | 35.3 | 36.6 | 23.6 | 26.1 | 7.47 | 22.1 | 16.7 | > 59.3 | 27.1 | 34
24 | COC(=O)C1=C(C)NC2(O)C=CC(=O)C3C(=O)N(c4ccccc4)C(=O)C132 (configuration not stated) | 70.3 | > 100 | 88 | > 100 | > 100 | > 100 | > 100 | > 100 | > 100 | > 100
25 | CCOc1cc(NC(C)=O)ccc1C(=O)NN1C(=O)C(Oc2ccccc2)C1c1ccccc1 (configuration not stated) | > 100 | > 100 | > 100 | > 100 | > 100 | > 100 | > 100 | > 100 |  | > 100
26 | O=C1O/C(=C(\Br)c2cccc3ccccc23)c2ccccc21 | 56.3 | > 61 | > 60.6 | > 87.2 | 46.1 | 33 | 71.4 | > 68.4 | > 56.1 | > 73
27 | CCOC(=O)/C(=C\c1ccc(N(C)C)cc1)S(=O)(=O)C(F)(F)C(F)(F)C(F)(F)C(F)(F)F | > 100 | > 100 | > 100 | > 100 | > 100 | > 100 | > 100 | > 100 | > 100 | > 100
28 | CCN(CC)CCCOC(=O)/C=C/c1c(C)[nH]c(=O)[nH]c1=O | > 394 | > 394 | > 625 | > 625 | > 625 | > 625 | > 625 | > 625 | > 625 | > 625
29 | COC(=O)C(C)(N=Cc1ccccc1)c1ccccc1 (configuration not stated) | > 100 | > 100 | > 100 | > 100 | > 100 | > 100 | > 100 | > 100 | > 100 | > 100
30 | C=C1C(=O)OC2(C)C3CCC(C3)C12 (configuration not stated) | > 100 | > 100 | > 100 | > 100 | > 100 | 85.8 | > 100 | > 100 | > 100 | > 100
31 | CC(C(=O)ON1C(=O)CCC1=O)c1ccc(C(=O)c2ccccc2)s1 (configuration not stated) | > 100 | > 100 | > 100 | > 100 | > 100 | > 100 | > 100 | > 100 | > 100 | > 100
32 | Cc1cc(O)c2c(c1O)C(=O)C13C(=C2O)C(=O)C2C(O)C1C1C(O)C3C(=O)C3=C(O)c4c(O)cc(C)c(O)c4C(=O)C321 (configuration not stated) | 0.406 | 0.468 | 0.327 | 0.841 | 0.613 | 0.543 | < 0.0312 | 0.56 | 0.214 | 
33 | CC12CCC(C(=O)O1)C(C)(C)O2 (configuration not stated) | > 100 | > 100 | > 100 | > 100 | > 100 | > 100 | > 100 | > 100 | > 100 | > 100
34 | COc1ccc2cc1Oc1ccc(cc1)C(Sc1ccccc1)CCOC(=O)CC2 (configuration not stated) | > 100 | > 100 | > 100 | > 100 | > 100 | > 100 | > 100 | > 100 | > 100 | 
35 | O=C1/C(=C\c2cccc(Oc3ccccc3)c2)S(=O)(=O)C(c2ccccc2)N1c1ccccc1Cl (configuration not stated) | 70.3 | > 100 | > 100 | 74.5 | 51.2 | 49.1 | 56.8 | 64.2 | > 100 | > 100
36 | O=C(O)CCCCCOc1cccnc1/C=N/NC1=NCCN1 | > 100 | > 100 | > 100 | 91.2 | > 100 | > 100 | > 100 | > 100 | > 100 | > 100
